Results as given in PubChem BioAssay (NCI).
“And” between values parts separate entries of the source, which are not always exact repeats. Identical values can stand only once.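 A five-concentration, 48-hour dose response in 96-well plates underlies each endpoint, interpolated linearly between surrounding concentrations. GI50 = concentration required for 50% inhibition of growth. TGI denotes the concentration required for complete inhibition of growth.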

Columns and labels:
Assay in all cases: growth of human tumour cells (NCI), 48 h
HCT-116 colon = system: HCT-116 colon
SK-MEL-2 melanoma = system: SK-MEL-2 melanoma
MDA-MB-435 = system: MDA-MB-435
HCC-2998 colon = system: HCC-2998 colon
HOP-92 NSCLC = system: HOP-92 NSCLC
BT-549 breast = system: BT-549 breast
PC-3 prostate = system: PC-3 prostate
A549 NSCLC = system: A549 NSCLC
HCT-15 colon = system: HCT-15 colon
SN12C renal = system: SN12C renal

## CCOC(=O)c1cc2c(n1Cc1cccc(OC)c1)-c1oncc1CCC2
HCT-116 colon
  GI50: 0.534 µM
  TGI: > 100 µM
SK-MEL-2 melanoma
  GI50: 0.535 µM
  TGI: 14.9 µM
MDA-MB-435
  GI50: 0.153 µM
  TGI: 0.456 µM
HCC-2998 colon
  GI50: 5.58 µM
  TGI: > 96.4 µM
HOP-92 NSCLC
  GI50: 2.68 µM
  TGI: 49.2 µM
BT-549 breast
  GI50: 1.61 µM
  TGI: > 100 µM
PC-3 prostate
  GI50: 1.67 µM
  TGI: > 100 µM
A549 NSCLC
  GI50: 0.915 µM
  TGI: > 100 µM
HCT-15 colon
  GI50: 0.473 µM
  TGI: > 100 µM
SN12C renal
  GI50: 6.46 µM
  TGI: > 100 µM

## O=C(O)C1OC1(c1cccc(Cl)c1)c1ccccc1Cl (stereo not drawn)
HCT-116 colon
  TGI: 43.7 µM
SK-MEL-2 melanoma
  TGI: 31.2 µM
MDA-MB-435
  TGI: > 100 µM
HCC-2998 colon
  TGI: > 100 µM
HOP-92 NSCLC
  TGI: 94.4 µM
BT-549 breast
  TGI: 39 µM
PC-3 prostate
  TGI: 57.9 µM
A549 NSCLC
  TGI: > 100 µM
HCT-15 colon
  TGI: 22.9 µM
SN12C renal
  TGI: 56.3 µM

## Cc1ccc(C(CC(=O)c2ccccc2)C2C(=O)NC(=O)NC2=O)cc1 (stereo not drawn)
HCT-116 colon
  GI50: > 100 µM
  TGI: > 100 µM
SK-MEL-2 melanoma
  GI50: > 100 µM
  TGI: > 100 µM
MDA-MB-435
  GI50: > 100 µM
  TGI: > 100 µM
HCC-2998 colon
  GI50: > 100 µM
  TGI: > 100 µM
HOP-92 NSCLC
  GI50: > 100 µM
  TGI: > 100 µM
BT-549 breast
  GI50: > 100 µM
  TGI: > 100 µM
PC-3 prostate
  GI50: > 100 µM
  TGI: > 100 µM
A549 NSCLC
  GI50: > 100 µM
  TGI: > 100 µM
HCT-15 colon
  GI50: > 100 µM
  TGI: > 100 µM
SN12C renal
  GI50: > 100 µM
  TGI: > 100 µM

## C[C@]12CCc3sc(NCCc4ccccc4)nc3C1=CC[C@@H]1[C@@H]2CC[C@]2(C)C(=O)CC[C@@H]12
HCT-116 colon
  GI50: 2.87 µM
  TGI: 12.3 µM
SK-MEL-2 melanoma
  GI50: 17 µM
  TGI: > 100 µM
MDA-MB-435
  GI50: 3.01 µM
  TGI: > 100 µM
HCC-2998 colon
  GI50: 8.19 µM
  TGI: > 100 µM
HOP-92 NSCLC
  GI50: 2.75 µM
  TGI: 9.1 µM
BT-549 breast
  GI50: 2.42 µM
  TGI: > 100 µM
PC-3 prostate
  GI50: 3.35 µM
  TGI: > 100 µM
A549 NSCLC
  GI50: 7 µM
  TGI: > 100 µM
HCT-15 colon
  GI50: 1.57 µM
  TGI: 4.49 µM
SN12C renal
  GI50: 2.89 µM
  TGI: > 100 µM

## COc1cc2oc3cc(=O)cc4oc(-c5ccccc5)cc(c2c2c1CCC(c1ccccc1)O2)c43 (stereo not drawn)
HCT-116 colon
  TGI: > 100 µM
SK-MEL-2 melanoma
  TGI: > 100 µM
MDA-MB-435
  TGI: 56 µM
HCC-2998 colon
  TGI: > 100 µM
HOP-92 NSCLC
  TGI: > 100 µM
BT-549 breast
  TGI: > 100 µM
PC-3 prostate
  TGI: > 100 µM
A549 NSCLC
  TGI: > 100 µM
HCT-15 colon
  TGI: 91.9 µM
SN12C renal
  TGI: > 100 µM

## CC(=O)OC[C@]12CC[C@@H](C(=O)CBr)[C@@H]1[C@H]1CC[C@@H]3[C@@]4(C)CCCNC(C)(C)[C@@H]4CC[C@@]3(C)[C@]1(C)CC2
HCT-116 colon
  GI50: 1.84 µM
  TGI: 3.61 µM
SK-MEL-2 melanoma
  GI50: 6.03 µM
  TGI: 20.3 µM
MDA-MB-435
  GI50: 3.81 µM
  TGI: 13.8 µM
HCC-2998 colon
  GI50: 11.5 µM
  TGI: 26.1 µM
HOP-92 NSCLC
  GI50: 1.6 µM
  TGI: 3.7 µM
BT-549 breast
  GI50: 2.2 µM
  TGI: 5.52 µM
PC-3 prostate
  GI50: 1.65 µM
  TGI: 3.72 µM
A549 NSCLC
  GI50: 14.5 µM
  TGI: 31.9 µM
HCT-15 colon
  GI50: 1.65 µM
  TGI: 3.52 µM
SN12C renal
  GI50: 2.28 µM
  TGI: 5.25 µM

## COc1cccc2c1C(=O)c1c(O)c3c(c(O)c1C2=O)CC(O)(C(O)CO)CC3OC1CC(N2CCOCC2)C(O)C(C)O1 (stereo not drawn)
HCT-116 colon
  TGI: 0.143 µM
SK-MEL-2 melanoma
  TGI: 0.0117 µM
MDA-MB-435
  TGI: 0.0568 µM
HCC-2998 colon
  TGI: 0.00372 µM and 0.0304 µM
HOP-92 NSCLC
  GI50: 0.0188 µM
  TGI: 0.0652 µM
BT-549 breast
  TGI: 0.206 µM
PC-3 prostate
  TGI: 0.144 µM
A549 NSCLC
  TGI: 0.472 µM
HCT-15 colon
  GI50: 0.0536 µM
  TGI: 0.515 µM and 1.36 µM
SN12C renal
  GI50: 0.0186 µM

## CN1CCN(CCOc2ccc(-c3cnc4c(-c5ccc(C(F)(F)F)cc5)cnn4c3)cc2)CC1
HCT-116 colon
  GI50: 1.38 µM
  TGI: 2.81 µM
SK-MEL-2 melanoma
  GI50: 1.82 µM
  TGI: 3.52 µM
MDA-MB-435
  GI50: 1.61 µM
  TGI: 3.02 µM
HCC-2998 colon
  GI50: 1.67 µM
  TGI: 3.34 µM
HOP-92 NSCLC
  GI50: 1.07 µM
  TGI: 2.33 µM
BT-549 breast
  GI50: 1.62 µM
  TGI: 3.04 µM
PC-3 prostate
  GI50: 1.43 µM
  TGI: 2.86 µM
A549 NSCLC
  GI50: 1.63 µM
  TGI: 3.3 µM
HCT-15 colon
  GI50: 1.02 µM
  TGI: 2.31 µM
SN12C renal
  GI50: 1.66 µM
  TGI: 3.1 µM

## N#CCCN(CCCN(CCCN(C(=O)Nc1ccccc1)c1ccccc1)C(=O)Nc1ccccc1)C(=O)Nc1ccccc1
HCT-116 colon
  GI50: > 100 µM
  TGI: > 100 µM
SK-MEL-2 melanoma
  GI50: > 100 µM
  TGI: > 100 µM
MDA-MB-435
  GI50: 34.9 µM
  TGI: > 100 µM
HCC-2998 colon
  TGI: > 100 µM
HOP-92 NSCLC
  TGI: 80.4 µM
BT-549 breast
  GI50: > 100 µM
  TGI: > 100 µM
PC-3 prostate
  GI50: > 100 µM
  TGI: > 100 µM
A549 NSCLC
  GI50: > 100 µM
  TGI: > 100 µM
HCT-15 colon
  TGI: > 100 µM
SN12C renal
  GI50: > 100 µM
  TGI: > 100 µM

## c1cc2n(n1)CCN2
HCT-116 colon
  TGI: > 10000 µM
SK-MEL-2 melanoma
  TGI: > 7500 µM
MDA-MB-435
  TGI: > 10000 µM
HCC-2998 colon
  TGI: > 7040 µM
HOP-92 NSCLC
  TGI: > 10000 µM
BT-549 breast
  TGI: > 10000 µM
PC-3 prostate
  TGI: > 10000 µM
A549 NSCLC
  TGI: 8580 µM
HCT-15 colon
  TGI: > 10000 µM
SN12C renal
  TGI: 7050 µM

## O=c1ccn(C2CC(O)C(CO)O2)c(=O)[nH]1 (stereo not drawn)
HCT-116 colon
  GI50: > 5000 µM
  TGI: > 5000 µM
SK-MEL-2 melanoma
  GI50: > 5000 µM
  TGI: > 5000 µM
MDA-MB-435
  GI50: > 5000 µM
  TGI: > 5000 µM
HCC-2998 colon
  GI50: > 5000 µM
  TGI: > 5000 µM
HOP-92 NSCLC
  GI50: > 5000 µM
  TGI: > 5000 µM
BT-549 breast
  GI50: > 5000 µM
  TGI: > 5000 µM
PC-3 prostate
  GI50: > 5000 µM
  TGI: > 5000 µM
A549 NSCLC
  GI50: > 5000 µM
  TGI: > 5000 µM
HCT-15 colon
  GI50: > 5000 µM
  TGI: > 5000 µM
SN12C renal
  GI50: > 5000 µM
  TGI: > 5000 µM

## O=C(Cn1c(=O)c(-c2ccccc2)nc2ccccc21)Nc1ccc(F)cc1
HCT-116 colon
  GI50: 24 µM
  TGI: > 100 µM
SK-MEL-2 melanoma
  GI50: 60.6 µM
  TGI: > 100 µM
MDA-MB-435
  GI50: > 100 µM
  TGI: > 100 µM
HCC-2998 colon
  GI50: > 100 µM
  TGI: > 100 µM
HOP-92 NSCLC
  GI50: 22.5 µM
  TGI: 86.2 µM
BT-549 breast
  GI50: 36.4 µM
  TGI: > 100 µM
PC-3 prostate
  GI50: 39.9 µM
  TGI: > 100 µM
A549 NSCLC
  GI50: 94.8 µM
  TGI: > 100 µM
HCT-15 colon
  GI50: > 100 µM
  TGI: > 100 µM
SN12C renal
  GI50: 77.5 µM
  TGI: > 100 µM

## COc1cc(NC(C)CCCN)c2ncccc2c1 (stereo not drawn)
HCT-116 colon
  GI50: 34.6 µM and 75.8 µM
  TGI: > 100 µM
SK-MEL-2 melanoma
  TGI: > 89.3 µM
MDA-MB-435
  TGI: > 100 µM
HCC-2998 colon
  TGI: 31.6 µM and 58.5 µM
HOP-92 NSCLC
  GI50: 27.2 µM and 62.6 µM
  TGI: > 100 µM
BT-549 breast
  TGI: > 100 µM
PC-3 prostate
  TGI: > 100 µM
A549 NSCLC
  TGI: > 100 µM
HCT-15 colon
  GI50: 41.9 µM and 98.4 µM
  TGI: > 100 µM
SN12C renal
  GI50: 41.4 µM and > 84.4 µM
  TGI: > 100 µM

## COc1ccc2c(=O)cc(-c3ccncc3)oc2c1OC
HCT-116 colon
  TGI: > 100 µM
SK-MEL-2 melanoma
  TGI: 68.2 µM
MDA-MB-435
  TGI: > 100 µM
HCC-2998 colon
  TGI: 48.4 µM
HOP-92 NSCLC
  TGI: 55.2 µM
BT-549 breast
  TGI: 98.4 µM
PC-3 prostate
  TGI: > 100 µM
A549 NSCLC
  TGI: > 100 µM
HCT-15 colon
  TGI: > 100 µM
SN12C renal
  TGI: > 100 µM
